Values after ≈ are worked out from the molar mass of the structure shown.
Key:
Format in all cases: functional
[1] = tested on: Enterococcus faecium; assay: Antibacterial activity against Vanomycin-resistant Enterococcus faecium assessed as bacterial growth inhibition by CLSI protocol agar-based assay
[2] = tested on: Pseudomonas aeruginosa; assay: Antibacterial activity against Pseudomonas aeruginosa PAO1 assessed as bacterial growth inhibition by CLSI protocol agar-based assay
[3] = tested on: Staphylococcus aureus; assay: Antibacterial activity against methicillin-resistant Staphylococcus aureus OITII-971 assessed as bacterial growth inhibition by CLSI protocol agar-based assay
[4] = tested on: Acinetobacter baumannii; assay: Antibacterial activity against Acinetobacter baumannii IID876 assessed as bacterial growth inhibition by CLSI protocol agar-based assay
[5] = tested on: Streptococcus pneumoniae; assay: Antibacterial activity against Streptococcus pneumoniae IID553 assessed as bacterial growth inhibition by CLSI protocol agar-based assay
[6] = tested on: Escherichia coli; assay: Antibacterial activity against Escherichia coli ATCC 25922 assessed as bacterial growth inhibition by CLSI protocol agar-based assay

| Compound | MIC [1] [µg/mL] | MIC [2] [µg/mL] | MIC [3] [µg/mL] | MIC [4] [µg/mL] | MIC [5] [µg/mL] | MIC [6] [µg/mL] |
| --- | --- | --- | --- | --- | --- | --- |
| COc1ccc2nc(CNC34CCC(CCc5c(F)cnc6ccc(=O)n(CCO)c56)(CC3)OC4)c(F)c(C)c2n1 | 32 (≈ 56.6 µM) | 32 (≈ 56.6 µM) | 32 (≈ 56.6 µM) | 32 (≈ 56.6 µM) | 32 (≈ 56.6 µM) | 32 (≈ 56.6 µM) |
| O=c1ccc2ncc(F)c(CCC34CCC(NCc5cc6c(cn5)OCCO6)(CC3)CO4)c2n1CCO | 2 (≈ 3.92 µM) | > 16 | 0.125 (≈ 0.245 µM) | 4 (≈ 7.83 µM) | 0.5 (≈ 0.979 µM) | 16 (≈ 31.3 µM) |
| O=C(NC12CCC(CCc3c(F)cnc4ccc(=O)n(CCO)c34)(CC1)OC2)c1cc2c(cn1)OCCC2 | 16 (≈ 30.6 µM) | > 32 | 0.5 (≈ 0.957 µM) | 8 (≈ 15.3 µM) | 1 (≈ 1.91 µM) | > 32 |
| O=C1COc2ccc(CNC34CCC(C[C@]5(O)Cn6c(=O)ccc7ncc(F)c5c76)(CC3)OC4)nc2N1 | – | – | 0.25 (≈ 0.493 µM) | – | – | 4 (≈ 7.88 µM) |
| O=c1ccc2ncc(F)c(CCC34CCC(NCc5cnc(-c6ccccn6)s5)(CC3)CO4)c2n1CCO | > 32 | > 16 | > 32 | > 32 | > 32 | > 32 |
| O=c1ccc2ncc(F)c(CCC34CCC(NCCCc5cc(F)ccc5F)(CC3)CO4)c2n1CCO | 16 (≈ 31 µM) | 64 (≈ 124 µM) | 0.125 (≈ 0.242 µM) | 1 (≈ 1.94 µM) | 0.5 (≈ 0.97 µM) | 16 (≈ 31 µM) |
| O=c1ccc2ncc(F)c(CCC34CCC(NCc5cnc(-c6ccncc6)s5)(CC3)CO4)c2n1CCO | > 32 | > 32 | > 32 | > 32 | > 32 | > 32 |
| O=c1ccc2ncc(=O)n3c2n1C[C@H]3CN1CCC(NCc2cc3c(cn2)OCCC3)CC1 [GEPOTIDACIN] | – | – | 0.25 (≈ 0.557 µM) | – | – | 2 (≈ 4.46 µM) |
| O=C1COc2ccc(CNC34CCC(CCc5ccnc6ccc(=O)n(CCO)c56)(CC3)OC4)nc2N1 | 16 (≈ 31.6 µM) | 32 (≈ 63.3 µM) | 2 (≈ 3.96 µM) | 8 (≈ 15.8 µM) | 4 (≈ 7.91 µM) | 8 (≈ 15.8 µM) |
| O=C1COc2ccc(C(=O)NC34CCC(CCc5c(F)cnc6ccc(=O)n(CCO)c56)(CC3)OC4)nc2N1 | 4 (≈ 7.44 µM) | 32 (≈ 59.5 µM) | 0.125 (≈ 0.233 µM) | 4 (≈ 7.44 µM) | 1 (≈ 1.86 µM) | 16 (≈ 29.8 µM) |
| COc1ccc2ncc(F)c(CCC34CCC(NCc5ccc6c(n5)NC(=O)CO6)(CC3)CO4)c2n1 | – | – | 0.016 (≈ 0.0324 µM) | – | – | 1 (≈ 2.03 µM) |
| O=c1ccc2ncc(F)c(CCC34CCC(NCc5cc6c(cn5)OCCC6)(CC3)CO4)c2n1CCO | 4 (≈ 7.86 µM) | > 64 | 0.063 (≈ 0.124 µM) | 1 (≈ 1.97 µM) | 0.25 (≈ 0.492 µM) | 8 (≈ 15.7 µM) |
| O=c1ccc2ncc(F)c(CCC34CCC(NCc5cnc(-c6ccsc6)s5)(CC3)CO4)c2n1CCO | > 32 | > 32 | 2 (≈ 3.7 µM) | > 32 | 2 (≈ 3.7 µM) | > 32 |
| O=c1ccc2ncc(F)c(CCC34CCC(NCc5csc(-c6cccs6)n5)(CC3)CO4)c2n1CCO | 16 (≈ 29.6 µM) | > 32 | 0.5 (≈ 0.925 µM) | 32 (≈ 59.2 µM) | 1 (≈ 1.85 µM) | 64 (≈ 118 µM) |
| C[C@@H]1CCc2cc(CNC34CCC(CCc5c(F)cnc6ccc(=O)n(CCO)c56)(CC3)OC4)ncc2O1 | 32 (≈ 61.2 µM) | > 64 | 1 (≈ 1.91 µM) | 64 (≈ 122 µM) | 1 (≈ 1.91 µM) | > 64 |
| O=c1ccc2ncc(F)c(CCC34CCC(NCc5ccc6nsnc6c5)(CC3)CO4)c2n1CCO | 8 (≈ 15.7 µM) | > 64 | 0.125 (≈ 0.245 µM) | 4 (≈ 7.85 µM) | 1 (≈ 1.96 µM) | 32 (≈ 62.8 µM) |
| O=C1COc2ccc(CNC34CCC([C@@H](O)Cc5c(F)cnc6ccc(=O)n(CCO)c56)(CC3)OC4)nc2N1 | 2 (≈ 3.71 µM) | 16 (≈ 29.7 µM) | 0.031 (≈ 0.0575 µM) | 4 (≈ 7.41 µM) | 0.125 (≈ 0.232 µM) | 32 (≈ 59.3 µM) |
| COc1ccc2ncc(F)c(C[C@H](O)C34CCC(NCc5ccc6c(n5)NC(=O)CO6)(CC3)CO4)c2n1 | 0.5 (≈ 0.981 µM) | 8 (≈ 15.7 µM) | 0.02 (≈ 0.0393 µM) | 0.5 (≈ 0.981 µM) | 0.05 (≈ 0.0981 µM) | 2 (≈ 3.93 µM) |
| O=c1ccc2ncc(F)c(CCC34CCC(NCc5cc(-c6cccs6)on5)(CC3)CO4)c2n1CCO | 64 (≈ 122 µM) | > 64 | 4 (≈ 7.62 µM) | 128 (≈ 244 µM) | 4 (≈ 7.62 µM) | > 128 |
| COc1ccc2nc(CNC34CCC(CCc5c(F)cnc6ccc(=O)n(CCO)c56)(CC3)OC4)c(F)cc2n1 | > 16 | > 16 | > 16 | > 16 | > 16 | > 16 |
| O=c1ccc2ncc(F)c(CCC34CCC(NCc5ccc6nonc6c5)(CC3)CO4)c2n1CCO | 64 (≈ 130 µM) | > 64 | 2 (≈ 4.05 µM) | 64 (≈ 130 µM) | 32 (≈ 64.8 µM) | > 64 |

| Compound | MIC [1] [µg/mL] | MIC [2] [µg/mL] | MIC [3] [µg/mL] | MIC [4] [µg/mL] | MIC [5] [µg/mL] | MIC [6] [µg/mL] |
| --- | --- | --- | --- | --- | --- | --- |
| CC(C)(O)Cn1c(=O)ccc2ncc(F)c(CCC34CCC(NCc5ccc6c(n5)NC(=O)CO6)(CC3)CO4)c21 | > 64 | > 64 | 8 (≈ 14.5 µM) | 64 (≈ 116 µM) | 64 (≈ 116 µM) | > 64 |
| O=c1ccc2nc(CNC34CCC(CCc5c(F)cnc6ccc(=O)n(CCO)c56)(CC3)OC4)c(F)cc2[nH]1 | > 16 | > 16 | > 16 | > 16 | > 16 | > 16 |
| O=c1ccc2ncc(F)c(CCC34CCC(NC/C=C/c5cc(F)ccc5F)(CC3)CO4)c2n1CCO | 2 (≈ 3.89 µM) | 8 (≈ 15.6 µM) | 0.031 (≈ 0.0604 µM) | 0.125 (≈ 0.243 µM) | 0.063 (≈ 0.123 µM) | 2 (≈ 3.89 µM) |
| C[C@H]1CCc2cc(CNC34CCC(CCc5c(F)cnc6ccc(=O)n(CCO)c56)(CC3)OC4)ncc2O1 | 32 (≈ 61.2 µM) | > 64 | 1 (≈ 1.91 µM) | 16 (≈ 30.6 µM) | 2 (≈ 3.83 µM) | 64 (≈ 122 µM) |
| O=C(NC12CCC(CCc3c(F)cnc4ccc(=O)n(CCO)c34)(CC1)OC2)c1cc2c(cn1)OCCO2 | 16 (≈ 30.5 µM) | > 32 | 1 (≈ 1.91 µM) | 32 (≈ 61 µM) | 2 (≈ 3.81 µM) | > 32 |
| O=c1ccc2ncc(F)c(CCC34CCC(NCc5cnc(-c6ncccn6)s5)(CC3)CO4)c2n1CCO | > 16 | > 32 | 1 (≈ 1.86 µM) | > 16 | 4 (≈ 7.45 µM) | > 16 |
| O=c1ccc2ncc(F)c(CCC34CCC(NCc5cnc(-c6cccnc6)s5)(CC3)CO4)c2n1CCO | > 16 | > 32 | > 16 | > 16 | > 16 | > 16 |
| O=C1COc2ccc(CNC34CCC(CCc5c(F)cnc6ccc(=O)n(CCN7CCOCC7)c56)(CC3)OC4)nc2N1 | 16 (≈ 27 µM) | > 16 | 1 (≈ 1.69 µM) | 8 (≈ 13.5 µM) | 2 (≈ 3.37 µM) | > 16 |
| O=c1ccc2ncc(F)c(C[C@H](O)C34CCC(NC/C=C/c5cc(F)ccc5F)(CC3)CO4)c2n1CCO | 16 (≈ 30.2 µM) | 64 (≈ 121 µM) | 0.5 (≈ 0.944 µM) | 1 (≈ 1.89 µM) | 0.5 (≈ 0.944 µM) | 16 (≈ 30.2 µM) |
| O=c1ccc2ncc(F)c(CCC34CCC(NCc5cnc(C6CCCCC6)s5)(CC3)CO4)c2n1CCO | > 32 | > 16 | > 32 | > 32 | > 32 | > 32 |
| NC(=O)Cn1c(=O)ccc2ncc(F)c(CCC34CCC(NCc5ccc6c(n5)NC(=O)CO6)(CC3)CO4)c21 | 64 (≈ 119 µM) | 16 (≈ 29.8 µM) | 4 (≈ 7.45 µM) | 64 (≈ 119 µM) | 4 (≈ 7.45 µM) | 32 (≈ 59.6 µM) |
| O=c1ccc2ncc(F)c3c2n1C[C@@]3(O)CC12CCC(NCc3cc4c(cn3)OCCO4)(CC1)CO2 | – | – | 0.5 (≈ 1.01 µM) | – | – | 16 (≈ 32.4 µM) |
| Cn1cc(-c2ncc(CNC34CCC(CCc5c(F)cnc6ccc(=O)n(CCO)c56)(CC3)OC4)s2)cn1 | > 32 | > 32 | 2 (≈ 3.71 µM) | > 32 | 8 (≈ 14.9 µM) | > 32 |
| O=C(O)Cn1c(=O)ccc2ncc(F)c(CCC34CCC(NCc5ccc6c(n5)NC(=O)CO6)(CC3)CO4)c21 | > 64 | > 64 | 16 (≈ 29.8 µM) | > 64 | 64 (≈ 119 µM) | > 64 |
| NCCn1c(=O)ccc2ncc(F)c(CCC34CCC(NCc5ccc6c(n5)NC(=O)CO6)(CC3)CO4)c21 | 8 (≈ 15.3 µM) | 2 (≈ 3.83 µM) | 1 (≈ 1.91 µM) | 16 (≈ 30.6 µM) | 1 (≈ 1.91 µM) | 1 (≈ 1.91 µM) |
| O=c1ccc2ncc(F)c(C[C@H](O)C34CCC(NCc5cc6c(cn5)OCCO6)(CC3)CO4)c2n1CCO | 32 (≈ 60.8 µM) | > 128 | 2 (≈ 3.8 µM) | 64 (≈ 122 µM) | 2 (≈ 3.8 µM) | 128 (≈ 243 µM) |
| CS(=O)(=O)NCCn1c(=O)ccc2ncc(F)c(CCC34CCC(NCc5ccc6c(n5)NC(=O)CO6)(CC3)CO4)c21 | 8 (≈ 13.3 µM) | 32 (≈ 53.3 µM) | 0.5 (≈ 0.832 µM) | 16 (≈ 26.6 µM) | 1 (≈ 1.66 µM) | 16 (≈ 26.6 µM) |
| O=c1ccc2ncc(F)c(CCC34CCC(NCc5cn(-c6ncccn6)cn5)(CC3)CO4)c2n1CCO | > 32 | > 128 | > 32 | > 32 | > 32 | > 32 |
| CN(C)CCn1c(=O)ccc2ncc(F)c(CCC34CCC(NCc5ccc6c(n5)NC(=O)CO6)(CC3)CO4)c21 | 16 (≈ 29.1 µM) | 8 (≈ 14.5 µM) | 0.5 (≈ 0.908 µM) | 0.5 (≈ 0.908 µM) | 1 (≈ 1.82 µM) | 1 (≈ 1.82 µM) |
| CNC(=O)Cn1c(=O)ccc2ncc(F)c(CCC34CCC(NCc5ccc6c(n5)NC(=O)CO6)(CC3)CO4)c21 | 16 (≈ 29.1 µM) | 32 (≈ 58.1 µM) | 4 (≈ 7.26 µM) | 64 (≈ 116 µM) | 1 (≈ 1.82 µM) | 32 (≈ 58.1 µM) |
| O=c1ccc2ncc(F)c(CCC34CCC(NC[C@@H]5C[C@H]5c5cc(F)ccc5F)(CC3)CO4)c2n1CCO | 16 (≈ 30.3 µM) | > 64 | 0.5 (≈ 0.948 µM) | 32 (≈ 60.7 µM) | 1 (≈ 1.9 µM) | 64 (≈ 121 µM) |
